Source: patent US9930893B2, “Inhibitors of DXP synthase and methods of use thereof” (The Johns Hopkins University, priority 2014, dated 2018)
Converted amounts (≈) assume the structure as drawn. “And” between values parts separate entries of the source, which are not always exact repeats. Identical values can stand only once. Like-named read-outs stand apart in the source and are kept apart here.

What was measured:
[1] = molecular target: T1, E. coli DXP synthase (Escherichia coli, UniProt P77488); test: biochemical
T1 construct: made in house
Method: FIG. 4A, FIG. 4B, and FIG. 4C are charts showing competitive inhibition of DXP synthase by pentylacetylphosphonate (PentAP; FIG. 4A), hexylacetylphosphonate (HexAP; FIG. 4B), and octylacetyl phosphonate (OctAP; FIG. 4C). Inhibition assays were performed as previously described^[18], [40]). […] Pyruvate concentration was varied from 12-240 μM and acetylphosphonate concentration was varied: 0 μM (∘), 10 μM (●), 25 μM (□) and 50 μM (▪). Experiments were performed in triplicate, and data were subjected to non-linear regression analysis for Ki determinations (GraphPad Prism). Representative Lineweaver-Burk plots (GraFit from Erithacus Software) are shown for PentAP (FIG. 4A), HexAP (FIG. 4B) and OctAP (FIG. 4C) to illustrate the competitive inhibition mode with respect to pyruvate.
Inhibition of DXP synthase was measured as previously described^[13], [18]. […] Acetylphosphonate concentration was varied from 0 to 250 μM. […] Experiments were performed in triplicate for BAP and in duplicate for iPrAP
In order to evaluate the inhibitory activity of BnAP against DXP synthase, a continuous spectrophotometric coupled assay was used to measure formation of DXP by monitoring IspC consumption of NADPH (340 nm). ^[2] DXP synthase reaction mixtures (previously described) including BnAP (15, 30, and 60 μM), IspC (1 μM) and NADPH (100 μM) were pre-incubated at 37° C. for 5 minutes. Initial rates were measured after the reaction was initiated by the addition of DXP synthase. Inhibition of the coupling enzyme (IspC) by BnAP was not observed up to 1.5 mM. Experiments were performed in triplicate. Double reciprocal analysis of data was carried out using GraFit version 7 from Erithacus Software.

[2] = molecular target: T2, Porcine pyruvate dehydrogenase (PDH E1 subunit) (Sus scrofa, UniProt P29804); test: Inhibition of PDH by acetylphosphonates; assay type: biochemical; details: Ki^PDH
T2 construct: Ki^PDH; μM); Ki^PDH
T2 sequence (P29804 1-390): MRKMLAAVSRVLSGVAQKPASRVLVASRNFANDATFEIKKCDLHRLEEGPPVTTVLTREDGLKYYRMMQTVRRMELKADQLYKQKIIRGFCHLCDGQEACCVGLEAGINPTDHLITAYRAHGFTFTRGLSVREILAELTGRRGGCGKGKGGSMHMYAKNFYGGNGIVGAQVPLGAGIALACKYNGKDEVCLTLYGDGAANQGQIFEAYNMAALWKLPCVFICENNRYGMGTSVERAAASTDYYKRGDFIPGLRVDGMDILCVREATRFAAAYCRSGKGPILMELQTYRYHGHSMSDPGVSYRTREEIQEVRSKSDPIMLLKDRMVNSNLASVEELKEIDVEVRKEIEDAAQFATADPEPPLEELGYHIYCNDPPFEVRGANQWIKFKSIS
Method: FIG. 6A, FIG. 6B, and FIG. 6C are charts showing Competitive inhibition of procine PDH E1 subunit by PentAP (FIG. 6A), HexAP (FIG. 6B) and OctAP (FIG. 6C). Inhibition assays were performed as previously described^[18]. Pyruvate concentration was varied from 12.5-250 μM and acetylphosphonate concentration was varied: 0 μM (∘), 250 μM (PentAP) or 200 μM (HexAP and OctAP) (●), 500 μM (□) and 1000 μM (▪). Experiments were performed in triplicate, and data were subjected to non-linear regression analysis for Ki determinations (GraphPad Prism). Representative Lineweaver-Burk plots (GraFit from Erithacus Software) are shown for PentAP (FIG. 6A), HexAP (FIG. 6B) and OctAP (FIG. […]) to illustrate the competitive inhibition mode with respect to pyruvate.
Pyruvate dehydrogenase activity was measured spectrophotometrically as previously reported ^[38] by monitoring absorbance changes at 340 nm due to reduction of NAD^+ by PDH. Reaction mixtures contained 100 mM HEPES (pH 8.0), 1 mg/mL BSA, 0.2 mM ThDP, 0.1 mM coenzyme A, 1 mM MgCl2, 2 mM cysteine, 0.3 mM tris(2-carboxyethyl)phosphine (TCEP). The reaction was initiated with enzyme (0.01 units/ml) and activity was monitored at 30° C. For inhibition studies, reaction mixtures (described above) including BnAP (0.5, 1, 2.25 mM) were pre-incubated at 30° C. for 5 minutes. Initial rates were measured immediately after reactions were initiated by addition of PDH (0.01 units/ml). Double reciprocal analysis of data was carried out using GraFit version 7 from Erithacus Software.

[3] = test system: wild-type K-12 E. coli (ATCC: MG1655); test: Antimicrobial activity against E. coli K-12 grown in CAMHB; assay type: cell-based; details: Escherichia coli, MG1655, 16 h, read-out: minimum inhibitory concentration (MIC90)
Method: FIG. 7A and FIG. 7B are charts showing representative growth curves are shown for BAP (FIG. 7A) and BnAP (FIG. 7B). Alkylacetylphosphonates exert dose-dependent delay in E. coli K-12 (MG 1655) growth in CAMHB. Fractional growth (measured at 16 h, blue arrow) was determined relative to the no drug control. Standardized cell cultures were exposed to increasing concentrations of acetylphosphonate, and growth was determined by measuring the OD600 for a period of 16 hours. Acetylphosphonate concentration was varied from 0-5 mM: No drug (light blue), 0.08 mM (orange), 0.16 mM (gray), 0.31 mM (yellow), 0.63 mM (blue), 1.25 mM (green), 2.5 mM (dark blue) and 5.0 mM (brown).
Thus, BnAP, PentAP, HexAP and OctAP, also shown to inhibit DXP synthase, were evaluated for antimicrobial activity against wild-type K-12 E. coli (ATCC: MG1655) grown in rich medium (CAMHB).

[4] = molecular target: T3, E. coli DXP synthase (DXPS) (Escherichia coli, UniProt P77488); assay type: biochemical; details: for kcat: acceptor substrate turnover
T3 construct: made in house
T3 sequence (P77488 1-620): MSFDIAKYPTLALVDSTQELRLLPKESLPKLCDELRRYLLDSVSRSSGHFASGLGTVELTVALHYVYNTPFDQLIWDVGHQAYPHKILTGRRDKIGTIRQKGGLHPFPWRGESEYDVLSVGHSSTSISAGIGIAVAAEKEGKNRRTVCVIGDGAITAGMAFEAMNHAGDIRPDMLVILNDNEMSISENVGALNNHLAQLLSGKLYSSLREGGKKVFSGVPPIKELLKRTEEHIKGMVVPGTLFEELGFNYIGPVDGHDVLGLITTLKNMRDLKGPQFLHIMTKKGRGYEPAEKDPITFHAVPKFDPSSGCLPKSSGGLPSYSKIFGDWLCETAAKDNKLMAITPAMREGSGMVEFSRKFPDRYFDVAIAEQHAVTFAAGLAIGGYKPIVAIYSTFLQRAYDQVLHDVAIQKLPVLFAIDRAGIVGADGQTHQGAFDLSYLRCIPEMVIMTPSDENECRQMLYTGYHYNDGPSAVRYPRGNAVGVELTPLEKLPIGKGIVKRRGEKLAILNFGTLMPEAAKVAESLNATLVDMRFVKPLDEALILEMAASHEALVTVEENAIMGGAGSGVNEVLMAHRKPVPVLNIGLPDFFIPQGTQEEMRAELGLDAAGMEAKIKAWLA
Method: Reaction mixtures containing 100 mM HEPES, pH 8.0, 2 mM MgCl2, 5 mM NaCl, 1 mM ThDP, 1 mg/mL BSA, 10-20 mM pyruvate, 10% DMSO, 0.5 mM 5 mM nitroso substrate were pre-incubated at 37° C. for 5 min. […] Aliquots of enzymatic mixture were removed at various time intervals and quenched into an equal volume of cold methanol. Quenched mixtures were incubated on ice for 20 minutes. Precipitated proteins were removed by centrifugation, and the supernatant was analyzed by HPLC with UV detection using the following conditions: Flow rate=3 mL/min; Solvent A: 100 mM NH4OAc, pH 4.6; Solvent B: acetonitrile; Method: 0-100% B over 10 min. New products formed were extracted from the supernatant using ethyl acetate (3×). […] Products were subsequently characterized by mass spectrometry.
Reaction mixtures containing 100 mM HEPES, pH 8.0, 2 mM MgCl2, 5 mM NaCl, 1 mM ThDP, 1 mg/mL BSA, 10-20 mM pyruvate, 10% DMSO v/v, and 10-300 μM nitroso substrate were pre-incubated at 37° C. for 5 min. […] Substrate concentration as a function of time was determined from absorbance values using Beer's Law. Initial reaction rates were determined from the linear range of the reaction progress curve, usually within 1-3 min. Data analysis to determine kcat and Km for each alternative substrate was carried out using GraFit version 7 from Erithacus Software.

[5] = molecular target: T4, DXP synthase (Escherichia coli, UniProt P77488); test: Inhibition of DXP formation by nitroso substrates (HPLC-based assay); assay type: biochemical, E. coli; details: 30 μM D-GAP, 80 μM pyruvate, 37° C.; average ± SEM
T4 construct: made in house
T4 sequence (P77488 1-620): T3 sequence (P77488 1-620)
Method: Enzyme reactions were initiated by addition of 0.1 μM DXP synthase. Aliquots (150 μL) of the enzymatic mixture were removed between 0.5 and 3 minutes and quenched into ice-cold methanol (150 μL). Precipitated protein was removed by centrifugation, and the supernatant was diluted in an equal volume of water. The nitroso substrate was removed by extraction into acetonitrile (3×), using a previously described freeze-extraction technique. ^[32] […] The derivatization mixtures were analyzed by HPLC as previously described. ^[19] To determine initial reaction rates in the presence of varying inhibitor concentration, the D,L-GAP and DXP hydrazone HPLC peak areas were measured, and the product concentration was determined as a percent of total peak area and plotted against reaction time. Initial rates GraFit version 7 from Erithacus Software was utilized to generate IC50 curves.

[6] = test system: porcine PDH E1 subunit; assay type: biochemical
Method: Reaction mixtures containing 100 mM HEPES, pH 8.0, 2 mM MgCl2, 5 mM NaCl, 1 mM ThDP, 1 mg/mL BSA, 10-20 mM pyruvate, 10% DMSO v/v, and 10-300 μM nitroso substrate were pre-incubated at 37° C. for 5 min. Enzymatic reactions were initiated by addition of 0.5-2 μM DXP synthase (or 0.1 units/ml PDH) and monitored spectrophotometrically by measuring the rate of disappearance of the nitroso substrate at its corresponding λmax. Substrate concentration as a function of time was determined from absorbance values using Beer's Law. Initial reaction rates were determined from the linear range of the reaction progress curve, usually within 1-3 min. Data analysis to determine kcat and Km for each alternative substrate was carried out using GraFit version 7 from Erithacus Software.

[7] = Ki (DXP synthase), competitive with respect to pyruvate
[8] = Table 4, read-out: In vitro DXP syn IC50
[9] = 10-20 mM pyruvate, pH 8.0, 10% DMSO, 37° C., average ± SEM
[10] = acceptor substrate, 10-20 mM pyruvate, pH 8.0, 10% DMSO, 37° C., average ± SEM

CC(=O)P(=O)(O)OCc1ccccc1 [Compound 1, benzyl acetylphosphonate]
Ki [1, 7]: 10.4 ± 1.3 µM
Ki ([1]; Ki (DXP synthase, with respect to D-GAP), uncompetitive with respect to D-GAP, 200 μM pyruvate): 70 ± 8 µM
Ki ([1]; Ki^DXPS, Table 5 (no unit in table; μM), vs pyruvate): 10 ± 1 µM
Ki ([2]; Table 5 (no unit in table; μM)): 880 ± 78 µM
Ki ([2]; competitive with respect to pyruvate): 882 ± 78 µM
MIC90 [3]: 630 µM (≈ 135 µg/mL)

CC(=O)P(=O)(O)OC1Cc2ccccc2C1 [Compound 2]
IC50 [1, 8]: 64.5 µM

COc1cccc(COP(=O)([O-])C(C)=O)c1.[Li+] [Compound 3]
kcat [4, 9]: 0.6 ± 0.12 s⁻¹
Km [4, 10]: 99 ± 16 µM
IC50 [1, 8]: 37.4 µM

CC(=O)P(=O)([O-])OCCc1cccc2ccccc12.[Li+] [Compound 5]
kcat [4, 9]: 0.0183 ± 0.0033 s⁻¹
Km [4, 10]: 41 ± 10 µM
IC50 [1, 8]: 77 µM
Ki ([1]; Table 4, read-out: In vitro DXP syn Ki): 55 µM

O=Nc1c(O)ccc2cc(Br)ccc12 [Compound 6]
kcat [4, 9]: 0.0333 ± 0.0033 s⁻¹
Km [4, 10]: 24 ± 6 µM

NS(=O)(=O)c1ccc2c(N=O)c(O)ccc2c1 [Compound 7]
kcat [4, 9]: 0.0197 ± 0.00067 s⁻¹
Km [4, 10]: 18 ± 4 µM

COc1ccc2ccc(O)c(N=O)c2c1 [Compound 8]
kcat [4, 9]: 0.0217 ± 0.0033 s⁻¹
Km [4, 10]: 63 ± 7 µM
IC50 [5]: > 2000 µM

Cc1nn(C(C)C)c(C)c1N=O [Compound 9]
kcat [4, 9]: 0.0233 ± 0.0033 s⁻¹
Km [4, 10]: 387 ± 18 µM
IC50 [5]: > 2000 µM

O=Nc1ccc(O)c2ncccc12 [Compound 10]
substrate usage by DXP synthase ([4]; in words): did not act as substrate

C=CCOP(=O)(O)C(C)=O [Compound 12]
IC50 [1]: 20 µM

O=C[C@H](O)COP(=O)(O)O [D-GAP, D-glyceraldehyde 3-phosphate, reference compound]
kcat [4, 9]: 1.7 ± 0.12 s⁻¹
Km ([4]; pH 8): 28 ± 4 µM

CCCCCCOP(=O)(O)C(C)=O [HexAP, Hexylacetylphosphonate]
Ki [1, 7]: 8.9 ± 0.5 µM
Ki ([2]; Table 5 (no unit in table; μM)): 117 ± 9 µM
MIC90 [3]: 5000 µM (≈ 1040 µg/mL)

O=Nc1ccccc1 [Substrate 1, nitrosobenzene, reference compound]
increase in Km for PDH compared to DXP synthase [6]: 2.7 fold

CC(=O)P(=O)(O)OC(C)C [iPrAP, Isopropylacetylphosphonate]
IC50 ([1]; pyruvate 95 μM, D-GAP 56 μM, error 95% Confidence Interval, read-out: IC50 (DXP synthase)): 250 µM and 245 µM
